In patent US20210403435A1, “HERBICIDAL COMPOUNDS” (SYNGENTA CROP PROTECTION AG, priority 2018, published 2021):
Read-outs that look alike come from different tables or passages of the source.

How the values were obtained:
Assay in all cases: Post-emergence efficacy, glasshouse, evaluated after 13 days
Format in all cases: in vivo
[1] = tested on: Amaranthus palmeri (AMAPA); conditions: Amaranthus palmeri, 312 h, read-out: Control of weed species AMAPA (100=total damage to plant; 0=no damage to plant)
Procedure: (§1) Seeds of a variety of test species were sown in standard soil in pots. After cultivation for 14 days (post-emergence) under controlled conditions in a glasshouse (at 24/16° C., day/night; 14 hours light; 65% humidity), the plants were sprayed with an aqueous spray solution derived from the dissolution of the technical active ingredient formula (I) in a small amount of acetone and a special solvent and emulsifier mixture referred to as IF50 (11.12% Emulsogen EL360 TM+44.44% N-methylpyrrolidone+44.44% Dowanol DPM glycol ether), to create a 50 g/l solution which was then diluted to required concentration using 0.25% or 1% Empicol ESC70 (Sodium lauryl ether sulphate)+1% ammonium sulphate as diluent.
(§2) The test plants were then grown in a glasshouse under controlled conditions (at 24/16° C., day/night; 14 hours light; 65% humidity) and watered twice daily. After 13 days the test was evaluated (100=total damage to plant; 0=no damage to plant).
(§3) Ipomoea hederacea (IPOHE), Euphorbia heterophylla (EPHHL), Chenopodium album (CHEAL), Amaranthus palmeri (AMAPA), Lolium perenne (LOLPE), Digitaria sanguinalis (DIGSA), Eleusine indica (ELEIN), Echinochloa crus-galli (ECHCG), Setaria faberi (SETFA)

[2] = tested on: Chenopodium album (CHEAL); conditions: Chenopodium album, 312 h, read-out: Control of weed species CHEAL (100=total damage to plant; 0=no damage to plant)
Procedure: as §1, §2, §3

[3] = tested on: Digitaria sanguinalis (DIGSA); conditions: Digitaria sanguinalis, 312 h, read-out: Control of weed species DIGSA (100=total damage to plant; 0=no damage to plant)
Procedure: as §1, §2, §3

[4] = tested on: Echinochloa crus-galli (ECHCG); conditions: Echinochloa crus-galli, 312 h, read-out: Control of weed species ECHCG (100=total damage to plant; 0=no damage to plant)
Procedure: as §1, §2, §3

[5] = tested on: Eleusine indica (ELEIN); conditions: Eleusine indica, 312 h, read-out: Control of weed species ELEIN (100=total damage to plant; 0=no damage to plant)
Procedure: as §1, §2, §3

[6] = tested on: Euphorbia heterophylla (EPHHL); conditions: Euphorbia heterophylla, 312 h, read-out: Control of weed species EPHHL (100=total damage to plant; 0=no damage to plant)
Procedure: as §1, §2, §3

[7] = tested on: Ipomoea hederacea (IPOHE); conditions: Ipomoea hederacea, 312 h, read-out: Control of weed species IPOHE (100=total damage to plant; 0=no damage to plant)
Procedure: as §1, §2, §3

[8] = tested on: Lolium perenne (LOLPE); conditions: Lolium perenne, 312 h, read-out: Control of weed species LOLPE (100=total damage to plant; 0=no damage to plant)
Procedure: as §1, §2, §3

[9] = tested on: Setaria faberi (SETFA); conditions: Setaria faberi, 312 h, read-out: Control of weed species SETFA (100=total damage to plant; 0=no damage to plant)
Procedure: as §1, §2, §3

[10] = post-emergence application, 500 g/Ha, evaluated after 13 days

| SMILES | pest or weed control at 500 g/ha [1, 10] [%] | pest or weed control at 500 g/ha [2, 10] [%] | pest or weed control at 500 g/ha [3, 10] [%] | pest or weed control at 500 g/ha [4, 10] [%] | pest or weed control at 500 g/ha [5, 10] [%] | pest or weed control at 500 g/ha [6, 10] [%] | pest or weed control at 500 g/ha [7, 10] [%] | pest or weed control at 500 g/ha [8, 10] [%] | pest or weed control at 500 g/ha [9, 10] [%] | pest or weed control at 500 g/ha ([1]; post-emergence) [%] | pest or weed control at 500 g/ha ([2]; post-emergence) [%] | pest or weed control at 500 g/ha ([3]; post-emergence) [%] | pest or weed control at 500 g/ha ([4]; post-emergence) [%] | pest or weed control at 500 g/ha ([5]; post-emergence) [%] | pest or weed control at 500 g/ha ([6]; post-emergence) [%] | pest or weed control at 500 g/ha ([7]; post-emergence) [%] | pest or weed control at 500 g/ha ([8]; post-emergence) [%] | pest or weed control at 500 g/ha ([9]; post-emergence) [%] |
| --- | --- | --- | --- | --- | --- | --- | --- | --- | --- | --- | --- | --- | --- | --- | --- | --- | --- | --- |
| CC(C)N(C)C(=O)c1cc[n+](CCC(=O)O)nc1 [Compound A34] | 100 | 40 | 70 | 30 | 20 | 70 | 20 | 30 | 70 |  |  |  |  |  |  |  |  |  |
| CCNC(=O)c1cc[n+](CC[C@H](N)C(=O)O)nc1 [Compound A91, [(1S)-1-carboxy-3-[4-(ethylcarbamoyl)pyridazin-1-ium-1-yl]propyl]ammonium dichloride] | 70 | 50 | 60 | 0 | 70 | 20 | 30 | 60 | 70 |  |  |  |  |  |  |  |  |  |
| CC(C)CNC(=O)c1cc[n+](CCS(=O)(=O)[O-])nc1 [Compound A37] | 100 | 80 | 70 | 50 | 60 | 70 | 50 | 50 | 70 |  |  |  |  |  |  |  |  |  |
| CC(=O)CCNC(=O)c1cc[n+](CCC(=O)O)nc1 [Compound A130] | 100 | 90 | 100 | 50 | 70 | 20 | 10 | 70 | 100 |  |  |  |  |  |  |  |  |  |
| CC(C)NC(=O)c1cc[n+](CCC(=O)[O-])nc1 [Compound A6] | 100 | 100 | 90 | 50 | 70 | 50 | 60 | 90 | 90 |  |  |  |  |  |  |  |  |  |
| CC(CS(C)(=O)=O)NC(=O)c1cc[n+](CCC(=O)O)nc1 (stereo not drawn) [Compound A122] | 100 | 90 | 100 | 90 | 70 | 70 | 60 | 60 | 60 |  |  |  |  |  |  |  |  |  |
| O=C(c1cc[n+](CCS(=O)(=O)[O-])nc1)N1CCOCC1 [Compound A28] | 100 | 90 | 70 | 50 | 70 | 80 | 60 | 60 | 70 |  |  |  |  |  |  |  |  |  |
| O=C(NCC1CC1)c1cc[n+](CCS(=O)(=O)[O-])nc1 [Compound A25] | 100 | 90 | 80 | 70 | 90 | 80 | 60 | 60 | 80 |  |  |  |  |  |  |  |  |  |
| CC1CC1NC(=O)c1cc[n+](CCC(=O)O)nc1 (stereo not drawn) [Compound A101] | 100 | 100 | 100 | 90 | 70 | 50 | 50 | 80 | 90 |  |  |  |  |  |  |  |  |  |
| CN(CC#N)C(=O)c1cc[n+](CCC(=O)O)nc1 [Compound A107] | 100 | 20 | 40 | 60 | 20 | 100 | 20 | 0 | 60 |  |  |  |  |  |  |  |  |  |
| O=C(c1cc[n+](CCS(=O)(=O)[O-])nc1)N1CCCCC1 [Compound A27] | 70 | 40 | 40 | 40 | 10 | 70 | 30 | 30 | 40 |  |  |  |  |  |  |  |  |  |
| O=C(Nc1ccccc1O)c1cc[n+](CCS(=O)(=O)[O-])nc1 [Compound A84, 2-[4-[(2-hydroxyphenyl)carbamoyl]pyridazin-1-ium-1-yl]ethanesulfonate] | 0 | 30 | 50 | 20 | 10 | 30 | 10 | 0 | 20 |  |  |  |  |  |  |  |  |  |
| C#CCNC(=O)c1cc[n+](CCNS(=O)(=O)[O-])nc1 [Compound A141] | 100 | 100 | 70 | 40 | 90 | 60 | 70 | 70 | 40 |  |  |  |  |  |  |  |  |  |
| CCNC(=O)c1cc[n+](CCP(=O)(OCC)OCC)nc1 [Compound A87] |  |  |  |  |  |  |  |  |  | 100 | 100 | 10 | 0 | 20 | 40 | 30 | 10 | 60 |
| O=C(O)CC[n+]1ccc(C(=O)NC2(C(F)(F)F)CC2)cn1 [Compound A94] | 100 | 100 | 90 | 80 | 100 | 90 | 60 | 80 | 90 |  |  |  |  |  |  |  |  |  |
| CN(C)C(=O)c1cc[n+](CCCS(=O)(=O)O)nc1 [Compound A3] | 90 | 70 | 20 | 20 | 10 | 90 | 20 | 10 | 20 |  |  |  |  |  |  |  |  |  |
